In patent publication US20210393549A1, “New use of R-enantiomer of adrenergic beta 2 receptor agonists for treatment of inflammatory bowel disease and its extra intestinal manifestations” (priority 2018, published 2021):
Where two headings read alike, the source gives them in different places.

Columns and labels:
[1] = system: DSS induced acute colitis
Excerpt: In one embodiment, IBD was induced in mice by add DSS into drink water for 7 days. […] (Cooper, S. et al., Clinic pathologic study of dextran sulfate sodium experimental murine colitis, Laboratory Investigation, vol. 69, no. 2, p. 238-249, 1993)
The mice were scarified at day 10th for anatomy and histology evaluations. […] Each of the above histological features was scored individually and added together which is then collectively expressed as “histological score”, for quantitative evaluation (Cooper, S. et al., above).
Male C57BL mice (8-10 weeks, 18-20 g) were grouped into control (drinking water only), DSS and DSS plus treatment groups (n=5). Acute colitis was induced by feeding mice with 2% (w/v) dextran sulfate sodium (DSS) (molecular mass 36-50 kDa) added to the drinking water given ad libitum for 7 days. At the end of seventh day, DSS was removed and animals received only drinking water for 2 days. The animals were euthanized for anatomical and histological examination at the tenth day after DSS ingestion.
R-salbutamol (R-S) (1 mg/kg, S-salbutamol (S-S) (1 mg/kg), R-terbutaline (R-T) (1 mg/kg), S-terbutaline (S-T) (1 mg/kg), R-bambuterol (10 mg/kg), S-bambuterol (S-B) (10 mg/kg), R-clenbuterol (R-C) (1 mg/kg), RS-clenbuterol (RS-C) (2 mg/kg) were administered i.g. daily, starting from the 2nd day of DSS induction for consecutive 8 days. Dexamethasone (Dex), 1 mg/kg) was used as a reference drug.
Evaluation of disease symptoms and histological changes Disease activity index (DAI): Animals were monitored daily for weight, water/food consumption, morbidity, stool consistency and fecal blood. […] The colon length was recorded as an indicator of inflammation. The entire colon was cut open longitudinally and gently flushed with sterile phosphate-buffered saline (PBS) to remove any traces of feces for pathology preparation. Colon segments were fixed in 10% neutral buffered formalin. Tissues were embedded in paraffin, sectioned, mounted on slides. H&E-stained paraffin section images were acquired. Pathological evaluation was conducted in a blinded manner.
Histological Score: the scores were given as follows: epithelium, 0=normal morphology, 1=loss of goblet cells, 2=loss of goblet cells in large areas, 3=loss of crypts, and 4=loss of crypts in large areas; and inflammation cells infiltration, 0=no infiltrate, 1=infiltrate around the crypt basis, 2=infiltrate reaching the muscularis mucosae, 3=extensive infiltration reaching the muscularis mucosae and thickening of the mucosa with abundant edema, and 4=infiltration of the submucosa. Data were presented as mean±the standard deviation (SD).

[2] = system: DSS induced sub-acute colitis; format: in vivo; parameters: DAI (disease active index) / FOB (fecal occult blood) / Hist score (histological score): scale not given here; Weight / Col Length (colon length): unit not given here
Excerpt: This invention also disclosed the used of R-salbutamol for treatment of sub acute or chronic phases of IBD. In one embodiment, IBD was induced by DSS as mentioned above, along with the treatment of R-salbutamol, at day 7th, DSS was removed and replaced with drinking water for additional 2 weeks. The disease active index (DAI) of mice was examined and evaluated periodically. The mice were scarified for pathological and histological evaluations at day of 23rd. In DSS induce IBD mice, there were significant loss of weight and fecal occult blood at day 14th and 22nd. The overall condition of colitis was severe although there was slightly improvement comparing the day 7th. The colon-rector length was significant shortened, and histological score were significant higher from control. In mice with DSS induced colitis, there were significant mononuclear leucocytes infiltration, few newly grew crypts with architectural disarray, denegation of epithelia, mucosa aberrant. There was also deep mucosal lymphocytosis, destruction of lamina propria and sometimes, transmural inflammation.
Same as example 1, except • 1), Three weeks' study with one week treatment.
DSS and all the treatment was removed and replaced with drinking water at the end of 1st week. Mice were given drink water and food ad libitum for additional 2 weeks.

[3] = system: DSS induced sub-acute colitis; assay: Prolonged (two weeks) treatment in DSS induced sub-acute colitis; format: in vivo, mice; conditions: evaluation at 23rd day, salbutamol 1 mg/kg, bambuterol 10 mg/kg
Excerpt: Same as example 2, except. 1), Two Weeks Treatment within a Three Weeks of Study
DSS was removed from drinking water at the end of 1st week. The treatments were started at 1st day for consecutive 14 days (2 weeks). Only drinking water given for the 3rd week. The evaluation and examination were made at 23rd day as did in example 1.

[4] = system: knee joints (articular cartilage, meniscus); assay: Damage of knee joints in DSS induced IBD mice; format: in vivo; conditions: compared with untreated DSS mice
Excerpt: In one embodiment, in DSS induced IBD mice, there was also a damage of knee joints. The articular cartilage structure became thinner and partially destroyed. The chondrocytes were degenerated, decreased and clustered. The meniscuses were damaged and lost its structural integrity. In X-ray, the layer of articular cartilage was thinner and bone structure was decreased. […] The articular cartilage and bone structure increased toward normal.

[5] = system: IMQ-induced Psoriasis-Like Skin lesions; assay: IMQ-induced psoriasis-like skin lesions; format: in vivo, mice
Description: Mice were divided into control, psoriasis and psoriasis plus treatment groups, (n=8 in each group). Psoriasis were induced by topical application of imiquimod cream (62.5 mg) on shaved dorsal skin for seven consecutive days. Vaseline was used in control group. There were four treatment groups: three doses of R-salbutamol (R-Sal) (0.5 mg, 1 mg, 2 mg/kg) and Dexamethasone (1 mg/kg) as positive control. All the treatments and same volume of saline (in control group) were administered orally. In some experiment, R-bambuterol (long-last beta2 agonist) was used as an additional treatment group (n=3). Psoriasis Area Severity Index were used for evaluation. Each of the scores for erythema, scaling and skin thickness were measured separately and then group together as a calculative score. (FIG. 2)

[6] = system: hemorrhoid inflammation symptoms; assay: Hemorrhoid inflammation symptoms, oral or topical; format: in vivo; conditions: given either orally or topically
Excerpt: These perianal pathological changes somewhat similar to hemorrhoid inflammation symptoms. […] This new used of beta2 agonists in treatment of hemorrhoid inflammation symptoms has never been disclosed in prior art.

[7] = system: acne, maliaria, hives and eczema; assay: Topical use on acne, maliaria, hives and eczema; format: in vivo
[8] = acute DSS colitis, compared with untreated DSS mice
[9] = one week treatment, evaluation at 23rd day, R-S, S-S 1 mg/kg, R-B, S-B 10 mg/kg
[10] = sub-acute or chronic DSS colitis, compared with untreated DSS mice

CC(C)(C)NC[C@H](O)c1ccc(O)c(CO)c1 [R-S, R-salbutamol]
colon histology (H&E), in words ([1]; Example 1, compared with untreated DSS mice): greatly improved
body weight, in words ([1]; acute DSS colitis): increased
DAI, in words [1, 8]: significantly improved
FOB, in words [1, 8]: reduced
histological score, in words [1, 8]: significantly reduced
length of colon-rector / shortening of large bowel, in words [1, 8]: shortening of large bowel was reduced
Hist score (histological score) ([1]; epithelium 0-4 plus infiltration 0-4, tenth day, 1 mg/kg (R-B, S-B 10 mg/kg; RS-C 2 mg/kg), mean ± SD): 4 ± 0.5
FOB (fecal occult blood) ([1]; grade 0, 2, 4, i.g. daily 8 days, 1 mg/kg (R-B, S-B 10 mg/kg; RS-C 2 mg/kg), mean ± SD): 0.5 ± 0.5
Weight ([1]; i.g. daily 8 days, 1 mg/kg (R-B, S-B 10 mg/kg; RS-C 2 mg/kg), mean ± SD): 93 ± 2.8
DAI (disease active index) ([1]; score 0 to 12, i.g. daily 8 days from 2nd day of DSS, 1 mg/kg (R-B, S-B 10 mg/kg; RS-C 2 mg/kg), n=5): 4
Col Length (colon length) ([1]; tenth day, i.g. daily 8 days, 1 mg/kg (R-B, S-B 10 mg/kg; RS-C 2 mg/kg), mean ± SD): 7.7 ± 0.6
Col Length (colon length) [2, 9]: 8.2 ± 0.6
DAI (disease active index) [2, 9]: 4
FOB (fecal occult blood) [2, 9]: 0.5 ± 0.5
Hist score (histological score) [2, 9]: 3 ± 0.5
Weight [2, 9]: 114 ± 0.2
DAI, in words [2, 10]: significant improved
histological index / histological score, in words [2, 10]: significantly ameliorated
fecal occult blood, in words ([2]; sub-acute or chronic DSS colitis, day 14th and 22nd, compared with untreated DSS mice): significantly reduced
DAI, in words [3]: return toward normal
histological score, in words [3]: return toward normal
damage of articular cartilage, meniscus and bone structure of knee joints [4]: significantly ameliorated
Psoriasis Area Severity score, high dose ([5]; R-salbutamol 2.0 mg/kg oral): best effects for all the scores
dose dependence of Psoriasis Area Severity score ([5]; R-salbutamol 0.5, 1, 2 mg/kg oral): dose-dependent response
histology of psoriasis skin lesions (HE) ([5]; dorsal skin, IMQ-induced psoriasis mice): mostly recovered
Psoriasis Area Severity score ([5]; oral, R-salbutamol 0.5, 1, 2 mg/kg, Dexamethasone 1 mg/kg, compared with psoriasis group): significantly reduced
hemorrhoid inflammation symptoms [6]: significantly alleviated
symptoms of acne, maliaria, hives and eczema [7]: significantly alleviated
